The target of one test is T1, PDGF-Ra (Homo sapiens, UniProt P16234).
T1 construct: host or cells: G-292 human osteosarcoma cells
The test is described as follows: Inhibitory activity against PDGF-Ra phosphorylation by PDGF-AA stimulation using G292. The class given is cell-based. The settings on record: for pIC50: > means inhibition at indicated concentration not more than 50%, < and << not less than 50%, read-out: PDGF (E) IC50; for inhibition at 0.1 µM: G292, read-out: PDGF (E) inhibition (%) at 100 nM. Put shortly:
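In G-292 osteosarcoma cells kept overnight in 0.1% FBS, compound exposure (1 hr, 37 °C) preceded PDGF-AA stimulation at 50 ng/ml for 5 min; receptor phosphotyrosine was then detected by PY-20 capture ELISA.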

Another test concerns the target T2, c-kit (Homo sapiens, UniProt P10721).
T2 construct: MO7e (human megakaryocytic leukemia cell line) which had been arrested for 20 hr; endogenous in cells; host or cells: MO7e human megakaryocytic leukemia cell line
Nature of the test: Inhibitory activity against c-kit autophosphorylation (MO7e cells, h-SCF). The class given is cell-based. As to conditions: for pIC50: MO7e cells, 50 ng/ml h-SCF, read-out: c-kit IC50; for inhibition at 1 µM: Mo7e, figure within parentheses in −( ) or >1000( ), at 1000 nM. Put shortly: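 First, human megakaryocytic leukemia MO7e cells arrested 20 hr receive compound for one hour. Second, SCF stimulation (50 ng/ml) runs 5 min, after which cells are solubilized. Third, tyrosine-phosphorylated c-kit in the lysate is quantified by sandwich ELISA with absorbance at 450 nm.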

Where [1] appears, read: figure within parentheses in >100( ), at 100 nM.

The values that follow come from patent publication US7135466B2 (Kirin Beer Kabushiki Kaisha, priority 1999, dated 2006).

pIC50: −log10 of the molar value.

As usually defined, the pIC50 is the IC50 on a negative log10 scale, so that one unit is a factor of ten. As a reminder, the inhibition is the change of the read-out against control, counted positive when it falls.

T2 sequence (P10721 26-976): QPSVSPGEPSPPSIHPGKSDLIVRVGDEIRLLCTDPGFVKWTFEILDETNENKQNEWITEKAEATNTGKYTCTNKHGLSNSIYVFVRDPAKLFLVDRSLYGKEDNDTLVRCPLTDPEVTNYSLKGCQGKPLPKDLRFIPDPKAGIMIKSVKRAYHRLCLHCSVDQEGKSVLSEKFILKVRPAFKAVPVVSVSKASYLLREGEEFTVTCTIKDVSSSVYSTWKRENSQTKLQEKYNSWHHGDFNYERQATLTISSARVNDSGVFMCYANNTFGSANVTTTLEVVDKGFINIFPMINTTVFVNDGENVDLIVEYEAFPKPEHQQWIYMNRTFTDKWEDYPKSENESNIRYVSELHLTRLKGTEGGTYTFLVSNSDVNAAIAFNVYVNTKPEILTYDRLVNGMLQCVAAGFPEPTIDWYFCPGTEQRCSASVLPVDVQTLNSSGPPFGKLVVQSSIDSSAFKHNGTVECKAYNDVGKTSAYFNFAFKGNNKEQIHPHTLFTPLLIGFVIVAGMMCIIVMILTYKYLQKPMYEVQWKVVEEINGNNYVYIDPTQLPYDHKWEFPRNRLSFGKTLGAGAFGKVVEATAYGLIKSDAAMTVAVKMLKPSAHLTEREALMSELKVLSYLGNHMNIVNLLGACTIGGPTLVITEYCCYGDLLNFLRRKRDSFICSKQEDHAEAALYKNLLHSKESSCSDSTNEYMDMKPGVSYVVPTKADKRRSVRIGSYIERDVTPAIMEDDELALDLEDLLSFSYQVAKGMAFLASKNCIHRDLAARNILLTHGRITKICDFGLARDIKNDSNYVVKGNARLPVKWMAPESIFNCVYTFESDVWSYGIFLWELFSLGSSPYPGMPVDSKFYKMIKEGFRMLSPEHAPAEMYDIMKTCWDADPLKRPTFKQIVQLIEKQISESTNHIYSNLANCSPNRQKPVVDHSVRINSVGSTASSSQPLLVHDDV
T1 sequence (P16234 24-1089): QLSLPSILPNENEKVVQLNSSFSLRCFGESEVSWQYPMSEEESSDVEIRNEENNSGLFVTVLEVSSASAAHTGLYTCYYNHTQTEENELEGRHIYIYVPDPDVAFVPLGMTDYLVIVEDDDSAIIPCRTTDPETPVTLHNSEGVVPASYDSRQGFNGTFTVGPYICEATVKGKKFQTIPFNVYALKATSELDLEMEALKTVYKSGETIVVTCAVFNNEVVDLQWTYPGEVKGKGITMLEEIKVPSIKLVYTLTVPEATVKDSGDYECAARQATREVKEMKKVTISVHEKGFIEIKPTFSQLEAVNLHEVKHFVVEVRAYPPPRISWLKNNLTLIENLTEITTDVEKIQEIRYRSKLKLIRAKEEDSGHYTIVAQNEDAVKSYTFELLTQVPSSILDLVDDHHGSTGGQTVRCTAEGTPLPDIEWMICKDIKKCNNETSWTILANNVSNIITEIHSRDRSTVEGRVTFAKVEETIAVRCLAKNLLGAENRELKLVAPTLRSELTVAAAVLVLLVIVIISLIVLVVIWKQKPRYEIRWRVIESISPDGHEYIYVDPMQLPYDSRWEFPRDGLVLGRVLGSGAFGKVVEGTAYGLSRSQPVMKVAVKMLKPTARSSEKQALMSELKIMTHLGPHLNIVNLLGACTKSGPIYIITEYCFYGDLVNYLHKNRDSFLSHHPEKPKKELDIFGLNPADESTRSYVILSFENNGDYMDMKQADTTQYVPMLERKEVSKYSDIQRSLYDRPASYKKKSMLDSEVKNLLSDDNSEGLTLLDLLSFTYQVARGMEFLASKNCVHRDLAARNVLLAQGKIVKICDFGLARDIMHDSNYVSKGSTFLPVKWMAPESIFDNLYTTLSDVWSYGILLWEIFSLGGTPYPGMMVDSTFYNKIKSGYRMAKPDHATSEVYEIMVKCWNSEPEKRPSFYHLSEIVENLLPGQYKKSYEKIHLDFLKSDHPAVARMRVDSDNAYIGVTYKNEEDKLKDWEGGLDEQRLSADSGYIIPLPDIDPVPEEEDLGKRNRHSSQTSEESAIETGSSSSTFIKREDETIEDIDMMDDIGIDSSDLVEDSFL

In the case of `COc1cc2nccc(Oc3ccc(NC(=S)NCCCN4CCN(C)CC4)c(C)c3C)c2cc1OC` [Example 557, N-{4-[(6,7-Dimethoxy-4-quinolyl)oxy]-2,3-dimethylphenyl}-N′-[3-(4-methylpiperazinyl)propyl]thiourea], the negative logarithm of the IC50 (pIC50) on PDGF-Ra was < 7.00; at c-kit, 6.20. The “PDGF (E) inhibition (%) at 100 nM” value at PDGF-Ra (setting [1]) was determined as 33%.
On to `COc1cc2ncnc(Oc3ccc(NC(=S)NCCN(C)C)cc3)c2cc1OC` [Example 559, N-{4-[(6,7-Dimethoxy-4-quinazolinyl)oxy]phenyl}-N′-(2-dimethylaminoethyl)thiourea], for which the pIC50 at PDGF-Ra is 7.44; on c-kit, 6.15.
The corresponding values for `COc1cc2nccc(Oc3ccc(NC(=O)NC4CCN(Cc5ccccc5)C4)cc3)c2cc1OC` (stereo not drawn) [Example 560, N-(1-Benzyltetrahydro-1H-3-pyrrolyl)-N′-{4-[(6,7-dimethoxy-4-quinolyl)oxy]phenyl}urea] are 7.92 and 6.97.
For `CCOC(=O)N1CCC(NC(=O)Nc2ccc(Oc3ccnc4cc(OC)c(OC)cc34)cc2)CC1` [Example 561, Ethyl 4-[({4-[(6,7-dimethoxy-4-quinolyl)oxy]anilino}carbonyl)amino]-1-piperidine-carboxylate], the pIC50 on PDGF-Ra is > 8.00; on c-kit it was 7.27.
For the compound `COc1cc2nccc(Oc3ccc(NC(=O)NC4CC(C)(C)NC(C)(C)C4)cc3)c2cc1OC` [Example 562, N-{4-[(6,7-Dimethoxy-4-quinolyl)oxy]-phenyl}-N′-(2,2,6,6-tetramethyl-4-piperidyl)urea], the pIC50 at PDGF-Ra was 7.10. For the same compound, at c-kit, the inhibition at 1 µM stood at 27%.
For `COc1cc2ncnc(Oc3ccc(NC(=O)NC4CC(C)(C)NC(C)(C)C4)cc3)c2cc1OC` [Example 563, N-{4-[(6,7-Dimethoxy-4-quinazolinyl)oxy]phenyl}-N′-(2,2,6,6-tetramethyl-4-piperidyl)urea], the pIC50 on PDGF-Ra is 7.27; on c-kit, 6.39.
Consider `COc1cc2nccc(Oc3ccc(NC(=O)N[C@@H]4CCN(Cc5ccccc5)C4)cc3)c2cc1OC` [Example 564, N-[(3R)-1-Benzyltetrahydro-1H-3-pyrrolyl]-N′-{4-[(6,7-dimethoxy-4-quinolyl)oxy]phenyl}urea], for which the pIC50 at PDGF-Ra is 7.41; on c-kit, 6.54.
As for `COc1cc2nccc(Oc3ccc(NC(=O)N[C@H]4CCN(Cc5ccccc5)C4)cc3)c2cc1OC` [Example 565, N-[(3S)-1-Benzyltetrahydro-1H-3-pyrrolyl]-N′-{4-[(6,7-dimethoxy-4-quinolyl)oxy]phenyl}urea], the pIC50 on PDGF-Ra was 7.34; at c-kit, 6.77.
For the compound `COc1cc2ncnc(Oc3ccc(NC(=O)N[C@@H]4CCN(Cc5ccccc5)C4)cc3)c2cc1OC` [Example 566, N-[(3R)-1-Benzyltetrahydro-1H-3-pyrrolyl]-N′-{4-[(6,7-dimethoxy-4-quinazolinyl)oxy]phenyl}urea], the pIC50 was 7.77 on PDGF-Ra and 6.56 at c-kit.
Consider `COc1cc2nccc(Oc3ccc(NC(=O)NC4CCN(Cc5ccccc5C)CC4)cc3)c2cc1OC` [Example 568, N-{4-[(6,7-Dimethoxy-4-quinolyl)oxy]phenyl}-N′-[1-(2-methylbenzyl)-4-piperidyl]urea], for which the pIC50 on PDGF-Ra is < 7.00. At PDGF-Ra (setting [1]), the inhibition at 0.1 µM was determined as 28%. In addition, the inhibition at 1 µM on c-kit turned out to be 31%.
Regarding `COc1cc2ncnc(Oc3ccc(NC(=O)NC4CCN(Cc5ccccc5C)C4)cc3)c2cc1OC` (stereo not drawn) [Example 569, N-{4-[(6,7-Dimethoxy-4-quinazolinyl)oxy]phenyl}-N′-[1-(2-methylbenzyl)tetrahydro-1H-3-pyrrolyl]urea], the pIC50 at PDGF-Ra is 7.92; on c-kit, 6.77.
For `COc1cc2ncnc(Oc3ccc(NC(=O)NC4CCN(Cc5ccccc5C)C4)c([N+](=O)[O-])c3)c2cc1OC` (stereo not drawn) [Example 570, N-{4-[(6,7-Dimethoxy-4-quinazolinyl)oxy]-2-nitrophenyl}-N′-[1-(2-methylbenzyl)tetrahydro-1H-3-pyrrolyl]urea], the pIC50 on PDGF-Ra is 7.64; at c-kit, 6.76.
Take `COc1cc(Oc2ncnc3cc(OC)c(OC)cc23)ccc1NC(=O)NC1CCN(Cc2ccccc2C)C1` (stereo not drawn) [Example 571, N-{4-[(6,7-Dimethoxy-4-quinazolinyl)oxy]-2-methoxyphenyl}-N′-[1-(2-methylbenzyl)tetrahydro-1H-3-pyrrolyl]urea]: the pIC50 on PDGF-Ra was 7.49; at c-kit it was 6.25.
For the compound `COc1cc2nccc(Oc3ccc(NC(=O)NC4CCN(Cc5ccccc5C)C4)c(C)c3C)c2cc1OC` (stereo not drawn) [Example 572, N-{4-[(6,7-Dimethoxy-4-quinolyl)oxy]-2,3-dimethylphenyl}-N′-[1-(2-methylbenzyl)tetrahydro-1H-3-pyrrolyl]urea], the pIC50 at PDGF-Ra is 7.19; at c-kit, 6.58.
Regarding `COc1cc2ncnc(Oc3ccc(NC(=O)NC4CCN(Cc5ccccc5C)C4)c(Cl)c3)c2cc1OC` (stereo not drawn) [Example 573, N-{2-Chloro-4-[(6,7-dimethoxy-4-quinazolinyl)oxy]phenyl}-N′-[1-(2-methylbenzyl)tetrahydro-1H-3-pyrrolyl]urea], the figures for the pIC50 on PDGF-Ra and on c-kit were 7.41 and 6.46, respectively.
With `COc1cc2nccc(Oc3ccc(NC(=O)NC4CCN(Cc5ccccc5C)C4)cc3)c2cc1OC` (stereo not drawn) [Example 574, N-{4-[(6,7-Dimethoxy-4-quinolyl)oxy]phenyl}-N′-[1-(2-methylbenzyl)tetrahydro-1H-3-pyrrolyl]urea], the pIC50 at PDGF-Ra is 7.35; at c-kit, 6.83.
As for `COc1cc2ncnc(Oc3ccc(NC(=O)N[C@@H]4CCN(Cc5ccccc5)C4)c(Cl)c3)c2cc1OC` [Example 575, N-[(3R)-1-Benzyltetrahydro-1H-3-pyrrolyl]-N′-{2-chloro-4-[(6,7-dimethoxy-4-quinazolinyl)oxy]phenyl}urea], the figures for the pIC50 on PDGF-Ra and at c-kit were 7.57 and 6.18, respectively.
Turning to `COc1cc2ncnc(Oc3ccc(NC(=O)N[C@H]4CCN(Cc5ccccc5)C4)c(Cl)c3)c2cc1OC` [Example 576, N-[(3S)-1-Benzyltetrahydro-1H-3-pyrrolyl]-N′-{2-chloro-4-[(6,7-dimethoxy-4-quinazolinyl)oxy]phenyl}urea], the pIC50 at PDGF-Ra was 7.44; at c-kit, 6.82.
As to `COc1cc2ncnc(Oc3ccc(NC(=O)N[C@@H]4CCN(Cc5ccccc5)C4)c([N+](=O)[O-])c3)c2cc1OC` [Example 577, N-[(3R)-1-Benzyltetrahydro-1H-3-pyrrolyl]-N′-{4-[(6,7-dimethoxy-4-quinazolinyl)oxy]-2-nitrophenyl}urea], the pIC50 on PDGF-Ra is 7.85; on c-kit it was 6.48.
On to `COc1cc2ncnc(Oc3ccc(NC(=O)N[C@H]4CCN(Cc5ccccc5)C4)c([N+](=O)[O-])c3)c2cc1OC` [Example 578, N-[(3S)-1-Benzyltetrahydro-1H-3-pyrrolyl]-N′-{4-[(6,7-dimethoxy-4-quinazolinyl)oxy]-2-nitrophenyl}urea], for which the pIC50 at PDGF-Ra is 7.74; at c-kit it was 6.98.
Regarding `COc1cc2nccc(Oc3ccc(NC(=O)NC4CCN(Cc5ccccc5Cl)C4)cc3)c2cc1OC` (stereo not drawn) [Example 579, N-[1-(2-Chlorobenzyl)tetrahydro-1H-3-pyrrolyl]-N′-{4-[(6,7-dimethoxy-4-quinolyl)oxy]phenyl}urea], the pIC50 at PDGF-Ra is 7.66; at c-kit, 6.84.
On to `COc1cc2ncnc(Oc3ccc(NC(=O)NC4CCN(Cc5ccccc5Cl)C4)cc3)c2cc1OC` (stereo not drawn) [Example 580, N-[1-(2-Chlorobenzyl)tetrahydro-1H-3-pyrrolyl]-N′-{4-[(6,7-dimethoxy-4-quinazolinyl)oxy]phenyl}urea], for which the pIC50 on PDGF-Ra is 7.85; at c-kit, 7.08.
With `COc1cc2ncnc(Oc3ccc(NC(=O)NC4CCN(Cc5ccccc5Cl)C4)c([N+](=O)[O-])c3)c2cc1OC` (stereo not drawn) [Example 581, N-[1-(2-Chlorobenzyl)tetrahydro-1H-3-pyrrolyl]-N′-{4-[(6,7-dimethoxy-4-quinazolinyl)oxy]-2-nitrophenyl}urea], the pIC50 at PDGF-Ra is 7.85; on c-kit it was 6.74.
For `COc1cc2nccc(Oc3ccc(NC(=O)NC4CCN(Cc5ccc(C(C)(C)C)cc5)C4)cc3)c2cc1OC` (stereo not drawn) [Example 582, N-{1-[4-(Tert-butyl)benzyl]tetrahydro-1H-3-pyrrolyl}-N′-{4-[(6,7-dimethoxy-4-quinolyl)oxy]phenyl}urea], at PDGF-Ra, the pIC50 was < 7.00. Besides, the inhibition at 0.1 µM at PDGF-Ra (setting [1]) turned out to be 20%. Also, the inhibition at 1 µM at c-kit is 29%.
Consider `COc1cc2ncnc(Oc3ccc(NC(=O)NC4CCN(Cc5ccc(C(C)(C)C)cc5)C4)cc3)c2cc1OC` (stereo not drawn) [Example 583, N-{1-[4-(Tert-butyl)benzyl]tetrahydro-1H-3-pyrrolyl}-N′-{4-[(6,7-dimethoxy-4-quinazolinyl)oxy]phenyl}urea], for which the pIC50 on PDGF-Ra was < 7.00. The inhibition at 0.1 µM on PDGF-Ra (setting [1]) turned out to be 17%. Moreover, the inhibition at 1 µM on c-kit was determined as 18%.
In the case of `COc1cc2ncnc(Oc3ccc(NC(=O)NC4CCN(Cc5ccc(C(C)(C)C)cc5)C4)c([N+](=O)[O-])c3)c2cc1OC` (stereo not drawn) [Example 584, N-{1-[4-(Tert-butyl)benzyl]tetrahydro-1H-3-pyrrolyl}-N′-{4-[(6,7-dimethoxy-4-quinazolinyl)oxy]-2-nitrophenyl}urea], the pIC50 at PDGF-Ra was < 7.00. Besides, the inhibition at 0.1 µM at PDGF-Ra (setting [1]) was determined as 13%. The inhibition at 1 µM at c-kit worked out at 13%.
